From ChEMBL document CHEMBL1201862, “PubChem BioAssay data set” (2004)
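Protocol summary: plate cells (96-well), add compound at 5 concentrations, incubate 48 h, interpolate endpoints linearly. Abbreviation: GI50, concentration required for 50% inhibition of growth.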 Activity calls are given as the source filed them. Rule as the data show it: active = GI50 up to about 1.1 µM and inactive = higher.

Columns and labels:
Experiment in all cases: growth of human tumour cells (NCI), 48 h
[1] = system: BT-549
[2] = system: SNB-75
[3] = system: NCI-H460
[4] = system: A549
[5] = system: SF-539
[6] = system: ACHN
[7] = system: Malme-3M
[8] = system: SN12C
[9] = system: DU-145
[10] = system: MOLT-4
[11] = system: UACC-257
[12] = system: LOX IMVI
[13] = system: RXF 393
[14] = system: OVCAR-5
[15] = system: A498
[16] = system: T47D
[17] = system: HT-29
[18] = system: HCC 2998
[19] = system: HL-60
[20] = system: SR

Measured: GI50

O=C(Nc1ccc(Cl)cc1)c1cc(S(=O)(=O)Nc2nc3cccnc3[nH]2)c(SSc2cc(Cl)c(C(=O)Nc3ccc(Cl)cc3)cc2S(=O)(=O)Nc2nc3cccnc3[nH]2)cc1Cl
inactive: [1] > 100 µM | [2] > 100 µM | [3] > 100 µM | [4] > 100 µM | [5] > 100 µM | [6] > 100 µM | [7] > 100 µM | [8] > 100 µM | [9] > 100 µM | [10] > 100 µM | [11] > 100 µM | [12] > 100 µM | [13] 28.6 µM | [14] > 100 µM | [15] > 100 µM | [16] > 100 µM | [17] > 100 µM | [18] > 100 µM | [19] > 100 µM

Cc1ccsc1/C=N/Nc1nncc2ccccc12
inactive: [1] > 100 µM | [2] > 100 µM | [4] 96.4 µM | [6] > 100 µM | [8] > 100 µM | [9] > 100 µM | [10] 44.8 µM | [11] > 100 µM | [12] 97.1 µM | [13] 15.8 µM | [14] > 100 µM | [15] > 100 µM | [16] > 100 µM | [17] > 100 µM | [18] > 100 µM

CCCNC(=O)c1cc(OC)c(OC)cc1NC(=O)C12CC3CC(CC(C3)C1)C2
inactive: [1] 16.7 µM | [3] 20.6 µM | [4] 17.1 µM | [5] 22.2 µM | [6] 14.5 µM | [7] 17.8 µM | [8] 16.1 µM | [9] 21.2 µM | [10] 29.9 µM | [11] 17.6 µM | [12] 19.5 µM | [13] 6.81 µM | [14] 20.2 µM | [15] 15.1 µM | [16] 17.5 µM | [17] 18.2 µM | [19] 32.7 µM

COC(=O)CCCC(=O)C1=NN(c2ccc(Cl)cc2)Cc2ccccc2N1
inactive: [1] > 100 µM | [2] 88.3 µM | [4] 96.4 µM | [5] > 100 µM | [6] > 100 µM | [8] > 100 µM | [9] > 100 µM | [10] > 100 µM | [11] > 100 µM | [12] > 100 µM | [13] 86.1 µM | [14] > 100 µM | [15] 36.1 µM | [16] 5.56 µM | [17] 98.6 µM | [18] > 100 µM

CCN1CC2=C(NC(=S)NC2c2cc(OC)c(OC)c(OC)c2)/C(=C/c2cc(OC)c(OC)c(OC)c2)C1 (stereo not drawn)
inactive: [1] 46.5 µM | [2] 2.74 µM | [3] 46.8 µM | [4] 26.7 µM | [6] 44.9 µM | [9] 33.3 µM | [10] 20.9 µM | [11] 59 µM | [12] 37.2 µM | [13] 33 µM | [14] 14.4 µM | [15] 27.3 µM | [17] 23.4 µM | [18] 29.8 µM | [19] 19.5 µM
active: [7] 0.871 µM

CC(=O)Oc1ccc(N2C(=O)C3c4[nH]c5ccccc5c4C4CCC(C(C)(C)C)CC4C3C2=O)cc1 (stereo not drawn)
inactive: [1] 4.02 µM | [3] 2.55 µM | [4] 3.13 µM | [5] 5.01 µM | [6] 3.55 µM | [7] 6.56 µM | [8] 2.14 µM | [9] 3.7 µM | [10] 10 µM | [11] 11.1 µM | [12] 4.41 µM | [13] 2.46 µM | [14] 2.63 µM | [15] 4.11 µM | [17] 3.3 µM | [18] 2.68 µM | [19] 2.21 µM

COC(=O)c1nc2c3c(cccc3c1C(=O)OC)Nc1ccccc1-2
inactive: [1] 43.2 µM | [20] 78.3 µM | [2] 34.5 µM | [3] 25.7 µM | [4] 35.6 µM | [5] 52.7 µM | [6] 36.6 µM | [7] 29.2 µM | [8] 33.4 µM | [9] 41.6 µM | [10] 43.8 µM | [11] 61.4 µM | [12] 32.3 µM | [13] 35.7 µM | [14] > 100 µM | [15] 36.6 µM | [17] 34.8 µM | [18] 42.3 µM | [19] 53 µM

O=[N+]([O-])c1cccc2nc3ccccc3c(NCCCNc3c4ccccc4nc4cccc([N+](=O)[O-])c34)c12
active: [1] 0.0855 µM | [2] 0.0328 µM | [3] < 0.01 µM | [4] < 0.0175 µM | [5] 0.0161 µM | [6] 0.0121 µM | [7] 0.0378 µM | [8] < 0.0169 µM | [9] < 0.0164 µM | [10] 0.017 µM | [11] 0.0556 µM | [12] 0.0977 µM | [13] 0.0177 µM | [14] 0.0435 µM | [16] 0.0537 µM | [17] < 0.01 µM | [18] 0.0157 µM | [19] 0.12 µM

COc1ccc2c(-c3csc(-c4c[nH]c5ccc(Br)cc45)n3)c[nH]c2c1
inactive: [1] 67.3 µM | [3] 23.2 µM | [4] 91.8 µM | [6] 70 µM | [7] 17.5 µM | [8] 58.1 µM | [9] > 100 µM | [10] 23 µM | [11] 88.9 µM | [12] 64.1 µM | [13] 11.9 µM | [14] 42.8 µM | [15] 89.3 µM | [16] 59.3 µM | [17] 77.6 µM

CC(=O)OCC1OC(On2ccccc2=S)C(OC(C)=O)C(OC(C)=O)C1OC(C)=O (stereo not drawn)
inactive: [1] > 100 µM | [2] > 100 µM | [3] > 100 µM | [4] > 100 µM | [5] > 100 µM | [6] > 100 µM | [7] > 100 µM | [8] > 100 µM | [9] > 100 µM | [10] 33.9 µM | [11] > 100 µM | [12] > 100 µM | [13] > 100 µM | [14] > 100 µM | [15] > 100 µM | [16] 87.1 µM | [17] 78.9 µM | [18] > 100 µM | [19] 1.55 µM

O=C(Nc1nc(C23CC4CC(CC(C4)C2)C3)cs1)c1cc2ccccc2oc1=O
inactive: [1] > 100 µM | [20] > 100 µM | [2] > 100 µM | [3] > 100 µM | [4] 38.2 µM | [5] > 100 µM | [6] > 100 µM | [7] > 100 µM | [8] > 100 µM | [9] > 100 µM | [10] > 100 µM | [11] > 100 µM | [12] > 100 µM | [13] > 100 µM | [14] > 100 µM | [15] > 100 µM | [17] > 100 µM | [18] > 100 µM | [19] > 100 µM

CC1=C(C(=O)N(C(C)C)C(C)C)CC(C(=O)N(C(C)C)C(C)C)=C(C)N1
inactive: [1] > 100 µM | [2] 16.4 µM | [3] > 100 µM | [4] > 100 µM | [5] > 100 µM | [6] > 100 µM | [8] > 100 µM | [9] > 100 µM | [10] > 100 µM | [11] > 100 µM | [12] > 100 µM | [13] > 100 µM | [14] > 100 µM | [15] 35.8 µM | [16] 49.3 µM | [17] > 100 µM | [18] > 100 µM | [19] > 100 µM

CSc1cc(Cl)c(C)cc1S(=O)(=O)NC(=O)Nc1ccc(Cl)cc1
inactive: [1] 32 µM | [20] 21.5 µM | [2] 27.1 µM | [3] 29.1 µM | [4] 33.3 µM | [6] 27.8 µM | [7] 31.6 µM | [8] 36.5 µM | [10] 16.8 µM | [11] 28.5 µM | [12] 10.9 µM | [13] 22.9 µM | [14] 45.3 µM | [15] 38.2 µM | [17] 35.2 µM | [18] 16 µM | [19] 12.3 µM

O=C1C(NCCc2ccc(O)c([N+](=O)[O-])c2)=CC(=O)c2[nH]cnc21
inactive: [1] > 10 µM | [3] 24.8 µM | [4] 28.6 µM | [5] 38 µM | [6] 44.3 µM | [7] 5.79 µM | [8] 26.2 µM | [10] 19.8 µM | [11] 18.3 µM | [12] 15.8 µM | [14] 33.3 µM | [15] 32.1 µM | [16] 18.5 µM | [17] 34.6 µM | [18] 51.5 µM | [19] 21.2 µM

Cc1c([C@H](C)[C@@H]2NC[C@@H](C)C[C@H]2O)ccc2c1C[C@H]1[C@H]2CC=C2C[C@@H](O)CC[C@@]21C [VERATRAMINE]
inactive: [1] 21.1 µM | [2] 17.5 µM | [3] 16.9 µM | [4] 16.7 µM | [6] 15 µM | [7] 16.2 µM | [8] 20.4 µM | [9] 27.6 µM | [10] 13.1 µM | [11] 13.2 µM | [12] 11.6 µM | [13] 17.5 µM | [14] 17.8 µM | [15] 15.2 µM | [16] 12.9 µM | [17] 13.7 µM | [18] 13.2 µM
